Results on one compound are retold here after article PMC6942458 (ACS chemical biology, 2019).

The target in data set [1] is T1, SIRT3 (Homo sapiens, UniProt Q9NTG7).
T1 sequence (Q9NTG7 1-399): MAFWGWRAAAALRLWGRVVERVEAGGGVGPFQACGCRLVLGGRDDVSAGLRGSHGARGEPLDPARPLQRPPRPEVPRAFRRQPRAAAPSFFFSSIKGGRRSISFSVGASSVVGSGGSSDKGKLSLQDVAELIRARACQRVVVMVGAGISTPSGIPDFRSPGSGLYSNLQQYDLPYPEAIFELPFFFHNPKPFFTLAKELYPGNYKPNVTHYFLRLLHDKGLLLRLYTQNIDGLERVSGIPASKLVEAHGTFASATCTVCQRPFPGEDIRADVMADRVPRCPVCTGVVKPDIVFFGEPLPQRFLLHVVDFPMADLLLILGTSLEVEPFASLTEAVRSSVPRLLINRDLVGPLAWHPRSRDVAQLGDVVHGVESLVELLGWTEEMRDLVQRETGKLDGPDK
As to the kind of experiment: SIRT3 deacetylase inhibition assay. Format: biochemical.

For data set [2], the system named is MCF7 cells. As to the kind of experiment: MCF7 cell permeability/availability assay. Format: in vitro ADME. As to conditions: for level of inhibitor detected in cells: 6 hours.
Data set [3] has as its system MCF7 cells. As to the kind of experiment: Soft agar colony formation assay. Format: cell-based. Particulars: MCF7, 12 μM, 10 days.
For data set [4] the following is noted: 50 mM DMSO stock diluted to 5 mg/ml in PBS.
Data set [5] deals with various cancer cell lines. Particulars: breast, pancreatic, colon, lung and many more; cited from earlier work.
Data set [6] deals with breast cancers. As to conditions: xenograft model and genetic model of breast cancers in mice; cited from earlier work.

Take `CCCCCCCCCCCCCC(=S)NCCCCC(NC(=O)OCc1ccccc1)C(=O)Nc1ccccc1` (centres unmarked) [TM]: the “SIRT3 inhibition at 83 μM” value in data set [1] is “did not inhibit”. Also, the “level of inhibitor detected in cells” value was “about 0.29 μg/million cells” in data set [2] (MCF7, 25 μM) and approximately 0.30 μg/million cells in data set [2] (MCF7, 50 μM). For the same compound, the “compound detected in treated cells” value in data set [2] (MCF7 cells treated 6 hours, LC-MS) is given as “approximately 0.30 μg/million cells”. The “colony formation in soft agar” value in data set [3] was “formed many colonies”. Moreover, in data set [4], the “solubility in PBS (precipitation)” value is listed as “white precipitation formed instantly”. Further, the “cytotoxicity in cancer cell lines” value in data set [5] is recorded as “cytotoxic”. Also, the tumor growth entry in data set [6] was “inhibited tumor growth”.
